# Measured values reported in US20220096437A1, “ANTIBACTERIAL COMPOUNDS” (The University of Birmingham, priority 2019, published 2022).
# Where two headings read alike, the source gives them in different places.
# System: Mycobacterium tuberculosis H37Rv
# Experiment: Susceptibility testing against Mycobacterium tuberculosis H37Rv (broth microdilution, resazurin readout)
# Assay type: cell-based
# Settings: M. tuberculosis H37Rv, 7 days at 37° C., resazurin fluorescence; for MIC50: read-out: MIC50 (μM) M. tub H37Rv; for MIC99: Gomperz fit, read-out: MIC99 (μM) M. tub H37Rv
# [1] = Mycobacterium tuberculosis, 168 h
Structure (SMILES),MIC50 [1] [µM],MIC99 [1] [µM],MIC50 [µM]
"COc1ccccc1CN1C(CN2CCCC2)CC1c1ccccc1Cl (racemic) [Azet 55, rac-1-(((2,4-cis)-4-(2-chlorophenyl)-1-(2-methoxybenzyl)azetidin-2-yl)methyl)pyrrolidine]",27.6,,
"CC(C)NCC1CC(c2ccccc2)N1Cc1ccccc1OC(F)(F)F (racemic) [Azet 30, rac-N-(((2,4-cis)-4-phenyl-1-(2-(trifluoromethoxy)benzyl)azetidin-2-yl)methyl)propan-2-amine]",21.1,48.9,
"FC(F)(F)Oc1ccc(C2CC(CN3CCC(c4ccc(C(F)(F)F)cc4)CC3)N2Cc2ccccc2Br)cc1 (racemic) [Azet 39, rac-1-(((2,4-cis)-1-(2-bromobenzyl)-4-(4-(trifluoromethoxy)phenyl)azetidin-2-yl)methyl)-4-(4-(trifluoromethyl)phenyl)pi-peridine]",85,90.9,
"FC(F)(F)c1ccc(C2CC(CN3CCCC3)N2Cc2ccccc2C(F)(F)F)cc1 (racemic) [Azet 51, rac-1-(((2,4-cis)-1-(2-(trifluoromethyl)benzyl)-4-(4-(trifluoromethyl)phenyl)a-zetidin-2-yl)methyl)pyrrolidine]",8.31,,
"FC(F)(F)c1cc(C2CC(CN3CCCC3)N2Cc2ccccc2Br)cc(C(F)(F)F)c1 (racemic) [Azet 33, rac-1-(((2,4-cis)-4-(3,5-bis(trifluoromethyl)phenyl)-1-(2-bromobenzyl)azetidin-2-yl)methyl)pyrrolidine]",6.93,3.29,
"COc1ccc(C2CC(CN3CCCC3)N2Cc2ccccc2Br)cc1 (racemic) [Azet 42, rac-1-(((2,4-cis)-1-(2-bromobenzyl)-4-(4-methoxyphenyl)azetidin-2-yl)methyl)pyrrolidine]",20.8,42.6,
"CNCC1CC(c2ccc(OC(F)(F)F)cc2)N1Cc1ccccc1OC(F)(F)F (racemic) [Azet 19, rac-N-methyl-1-((2,4-cis)-1-(2-(trifluoromethoxy)benzyl) (trifluoromethoxy)phenyl) azetidin-2-yl)methanamine]",4.5,7.2,
"COCCNCC1CC(c2ccc(OC(F)(F)F)cc2)N1Cc1ccccc1OC(F)(F)F (racemic) [Azet 20, rac-2-methoxy-N-(((2,4- cis)-1-(2-(trifluoromethoxy)benzyl)-4-(4-(trifluoromethoxy)phenyl)azetidin-2-yl)methyl)ethan-1-amine]",11,18,
"FC(F)(F)Oc1cccc(C2CC(CN3CCCC3)N2Cc2ccccc2OC(F)(F)F)c1 (racemic) [Azet 58, rac-1-(((2,4-cis)-1-(2-(trifluoromethoxy)benzyl) (trifluoromethoxy)phenyl)azetidin-2-yl)methyl)pyrrolidine]",9.14,,
"COc1ccccc1CN1C(CN2CCCC2)CC1c1ccc(Br)cc1 (racemic) [Azet 48, rac-1-(((2,4-cis)-4-(4-bromophenyl)-1-(2-methoxybenzyl)azetidin-2-yl)methyl)pyrrolidine]",20.3,,
"FC(F)(F)c1cccc(C2CC(CN3CCCC3)N2Cc2ccccc2C(F)(F)F)c1 (racemic) [Azet 50, rac-1-(((2,4-cis)-1-(2-(trifluoromethyl)benzyl)-4-(3-(trifluoromethyl)phenyl)a-zetidin-2-yl)methyl)pyrrolidine]",7.04,,
"Clc1cc(Cl)cc(C2CC(CN3CCCC3)N2Cc2ccccc2Br)c1 (racemic) [Azet 32, rac-1-(((2,4-cis)-1-(2-bromobenzyl)-4-(3,5-dichlorophenyl)azetidin-2-yl)methyl)pyrrolidine]",7.58,9.21,
"CN(C)CC1CC(c2cc(Br)cc(Br)c2)N1Cc1ccccc1Br (racemic) [Azet 2, rac-1-((2,4-cis)-1-(2-bromobenzyl)-4-(3,5-dibromophenyl)azetidin-2-yl)-N,N-dimethylmethanamine]",5.6,,
"CN(C)CC1CC(c2cc(C(F)(F)F)cc(C(F)(F)F)c2)N1Cc1ccccc1Br (racemic) [Azet 4, rac-1-((2,4-cis)-4-(3,5-bis(trifluoromethyl)phenyl)-1-(2-bromobenzyl)azetidin-2-yl)-N,N-dimethylmethanamine]",6.59,7.3,
"CN(C)CC1CC(c2ccc(OC(F)(F)F)cc2)N1Cc1ccccc1OC(F)(F)F (racemic) [Azet 5, rac-N,N-dimethyl-1-((2,4- cis)-1-(2-(trifluoromethoxy)benzyl)-4-(4-(trifluoromethoxy)phenyl)azetidin-2-yl)methanamine]",9.9,12,
"CC(C)(C)c1ccc(C2CC(CN3CCCC3)N2Cc2ccccc2C(F)(F)F)cc1 (racemic) [Azet 52, rac-1-(((2,4-cis)-4-(4-(tert-butyl)phenyl)-1-(2-(trifluoromethyl)benzyl)a-zetidin-2-yl)methyl)pyrrolidine]",,,8.62
"FC(F)(F)Oc1ccc(C2CC(CN3CCCC3)N2Cc2ccccc2OC(F)(F)F)cc1 (racemic) [Azet 59, rac-1-(((2,4-cis)-1-(2-(trifluoromethoxy)benzyl)-4-(4-(trifluoromethoxy)phenyl)azetidin-2-yl)methyl)pyrrolidine]",9.42,6.25,
"FC(F)(F)Oc1ccc(C2CC(CNC3CC3)N2Cc2ccccc2OC(F)(F)F)cc1 (racemic) [Azet 18, rac-N-(((2,4-cis)-1-(2-(trifluoromethoxy)benzyl)-4-(4-(trifluoromethoxy)phenyl)azetidin-2-yl)methyl)cyclopropana-mine]",11.9,13,
"C#CCNCC1CC(c2cc(Br)cc(Br)c2)N1Cc1ccccc1Br (racemic) [Azet 3, rac-N-(((2,4-cis)-1-(2-bromobenzyl)-4-(3,5-dibromophenyl)azetidin-2-yl)methyl)prop-2-yn-1-amine]",22.8,,
"FC(F)(F)c1ccccc1CN1C(CN2CCCC2)CC1c1ccccc1C(F)(F)F (racemic) [Azet 49, rac-1-(((2,4-cis)-1-(2-(trifluoromethyl)benzyl)-4-(2-(trifluoromethyl)phenyl)a-zetidin-2-yl)methyl)pyrrolidine]",6.68,,
"Brc1cc(Br)cc(C2CC(CN3CCCC3)N2Cc2ccccc2Br)c1 (racemic) [Azet 34, rac-1-(((2,4-cis)-1-(2-bromobenzyl)-4-(3,5-dibromophenyl)azetidin-2-yl)methyl)pyrrolidine]",7.03,3.26,
"Cc1ccccc1CN1C(CN2CCCC2)CC1c1ccccc1 (racemic) [Azet 62, rac-1-(((2,4-cis)-1-(2-methylbenzyl)-4-phenylazetidin-2-yl)methyl)pyrrolidine]",37,,
"FC(F)(F)c1ccccc1CN1C(CN2CCCC2)CC1c1ccccc1 (racemic) [Azet 63, rac-1-(((2,4-cis)-4-phenyl-1-(2-(trifluoromethyl)benzyl)a-zetidin-2-yl)methyl)pyrrolidine]",22.7,,
"COc1ccccc1CN1C(CN2CCCC2)CC1c1ccc(Cl)cc1 (racemic) [Azet 53, rac-1-(((2,4-cis)-4-(4-chlorophenyl)-1-(2-methoxybenzyl)azetidin-2-yl)methyl)pyrrolidine]",10.3,,
"COc1ccccc1CN1C(CN2CCCC2)CC1c1cccc(Cl)c1 (racemic) [Azet 54, rac-1-(((2,4-cis)-4-(3-chlorophenyl)-1-(2-methoxybenzyl)azetidin-2-yl)methyl)pyrrolidine]",11.7,,
"CC(C)NCC1CC(c2ccc(OC(F)(F)F)cc2)N1Cc1ccccc1OC(F)(F)F (racemic) [Azet 31, rac-N-(((2,4-cis)-1-(2-(trifluoromethoxy)benzyl)-4-(4-(trifluoromethoxy)phenyl)azetidin-2-yl)methyl)propan-2-amine]",8.89,26.4,
"FC(F)(F)Oc1ccccc1CN1C(CN2CCCC2)CC1c1ccccc1 (racemic) [Azet 61, rac-1-(((2,4-cis)-4-phenyl-1-(2-(trifluoromethoxy)benzyl)azetidin-2-yl)methyl)pyrrolidine]",17.9,,
"CC(C)NCC1CC(c2ccc(OC(F)(F)F)cc2)N1Cc1ccccc1Br (racemic) [Azet 29, rac-N-(((2,4-cis)-1-(2-bromobenzyl)-4-(4-(trifluoromethoxy)phenyl)azetidin-2-yl)methyl)propan-2-amine]",9.85,24.5,
"Brc1cc(Br)cc(C2CC(CNC3CC3)N2Cc2ccccc2Br)c1 (racemic) [Azet 1, rac-N-(((2,4-cis)-1-(2-bromobenzyl)-4-(3,5-dibromophenyl)azetidin-2-yl)methyl)cyclopropana-mine]",11.8,51.8,
"FC(F)(F)Oc1ccccc1CN1C(CN2CCCC2)CC1c1ccccc1OC(F)(F)F (racemic) [Azet 57, rac-1-(((2,4-cis)-1-(2-(trifluoromethoxy)benzyl) (trifluoromethoxy)phenyl)azetidin-2-yl)methyl)pyrrolidine]",7.05,,
